The values below come from patent publication US8946439B2, “Amide compounds, compositions and uses thereof” (Evotec AG, priority 2008, dated 2015).

Some results are limits rather than exact numbers.

One experiment has as its target T1, hP2X2/3H (Homo sapiens, UniProt P56373+Q9UBL9).
T1 construct: expressed in transfected cells; host or cells: e.g. HEK293 or 1321N1
T1 sequence (Q9UBL9 1-471): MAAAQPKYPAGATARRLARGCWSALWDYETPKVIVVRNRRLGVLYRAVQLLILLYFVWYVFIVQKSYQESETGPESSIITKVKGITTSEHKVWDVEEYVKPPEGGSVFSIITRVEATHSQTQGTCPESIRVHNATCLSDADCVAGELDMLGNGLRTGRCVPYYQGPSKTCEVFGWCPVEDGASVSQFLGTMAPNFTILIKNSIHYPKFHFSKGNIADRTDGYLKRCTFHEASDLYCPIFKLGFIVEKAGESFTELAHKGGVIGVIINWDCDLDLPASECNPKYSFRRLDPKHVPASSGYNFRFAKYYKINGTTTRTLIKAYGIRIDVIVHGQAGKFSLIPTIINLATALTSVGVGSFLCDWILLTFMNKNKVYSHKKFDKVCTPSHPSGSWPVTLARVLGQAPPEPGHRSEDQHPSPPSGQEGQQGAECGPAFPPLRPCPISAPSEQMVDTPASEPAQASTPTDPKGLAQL
T1 sequence (P56373 1-397): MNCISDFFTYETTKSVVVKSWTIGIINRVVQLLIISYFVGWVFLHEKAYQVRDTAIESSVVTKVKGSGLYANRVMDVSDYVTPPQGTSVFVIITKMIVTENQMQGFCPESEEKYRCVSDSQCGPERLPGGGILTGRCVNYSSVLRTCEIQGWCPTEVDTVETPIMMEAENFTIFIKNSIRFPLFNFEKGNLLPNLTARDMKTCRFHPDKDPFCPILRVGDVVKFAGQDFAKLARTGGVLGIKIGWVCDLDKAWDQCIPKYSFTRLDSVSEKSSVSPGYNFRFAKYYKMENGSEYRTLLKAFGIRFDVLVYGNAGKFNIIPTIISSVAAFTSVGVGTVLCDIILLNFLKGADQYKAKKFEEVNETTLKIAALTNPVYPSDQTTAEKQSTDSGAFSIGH
In words: Calcium uptake assay (P2X antagonist assay), P2X2/3 heteromer. The class given is cell-based. The conditions noted are these: calcium uptake assay, hP2X2/3H; read-out: IC50 hP2X2/3H (nM), Ca Influx. An excerpt:
(§1) The human P2X2/3 chimera clone is created as described by Neelands et al, and then cloned into an expression vector as above. Receptors are expressed in cells (e.g., HEK293 or 1321N1 (obtained from the ECACC)) via transient transfection using standard lipid mediated transfection, or by creation of stable transfectants for each receptor. For expression of the P2X2/3 heteromeric receptor, the P2X3 expression vector is stably transfected into a cell line already stably expressing P2X2. P2X2/3 heteromer function is isolated using pharmacological methods. Cell lines are maintained in DMEM+5% Glutamax, the appropriate level of selective antibiotic, and 10% heat inactivated FBS.
(§2) Functional activity of compounds at the P2X receptor is determined by measuring their ability to inhibit agonist-induced calcium influx. Compounds are tested for antagonist activity against the P2X2/3 chimera, the P2X3 homomer, or the P2X2/3 heteromer. At the start of each screening day, the agonist EC50 is determined. Compound % inhibition or IC50s are subsequently determined using a predetermined agonist concentration (EC50-90 depending on cell line) as a stimulus. The agonists used are αβMeATP, ATP, or other ATP analogs. Compounds may be tested at concentrations ranging from 1 pM to 10 μM.
(§3) To test for antagonist activity, cells expressing the appropriate receptor are seeded onto 96 or 384 well plates 18-24 hours prior to assay. […] Plates are incubated at 37° C. and then equilibrated at room temperature. Antagonism of agonist-induced calcium influx is measured using a fluorescent imaging plate reader (e.g. FLIPR^TETRA, Molecular Devices, Sunnyvale, Calif.). The assay comprises two stages: a pre-treatment phase followed by a treatment phase. Compounds may be tested as follows: For the pre-treatment phase, 50 μL of 3× concentration of test compound in HBSS is added to cells containing […], of dye loading media to achieve a final concentration of 1× test compound. For the treatment phase, at a set interval after pre-treatment (1-30 minutes), 50 μL of 1× test compound plus 4× agonist solution is added, resulting in a final concentration of 1× compound and 1× agonist. […] Responses are measured as (peak fluorescence after agonist addition) minus (baseline fluorescence prior to treatment). Percent inhibition is calculated as follows:
(§4) [formula] IC50 values are determined by analyzing dose response data in a 4 parameter logistic fit using GraphPad Prizm.

A further experiment has as its target T2, hP2X3 (Homo sapiens, UniProt P56373).
T2 construct: expressed in transfected cells; host or cells: e.g. HEK293 or 1321N1
T2 sequence (P56373 1-397): T1 sequence (P56373 1-397)
Kind of experiment: Calcium uptake assay (P2X antagonist assay), P2X3 homomer. The class given is cell-based. The conditions noted are these: calcium uptake assay, hP2X3; read-out: IC50 hP2X3 (nM), Ca Influx.
From the text: as §1, §2, §3, §4

For the molecule `Cc1ccc(-c2cc(C(=O)N[C@@H](C)CO)cc(C(=O)N(C)CC(C)C)c2)cc1` [Compound 1, (S)—N-(1-Hydroxypropan-2-yl)-N-isobutyl-N,4′-dimethylbiphenyl-3,5-dicarboxamide], the IC50 on hP2X2/3H is 100 to 500 nM; at hP2X3, less than 100 nM.

For the molecule `Cc1ccc(-c2cc(C(=O)NCC(C)C)cc(C(=O)N[C@@H](C)CO)c2)cc1` [Compound 2, (S)—N3-(1-Hydroxypropan-2-yl)-N5-isobutyl-4′-methylbiphenyl-3,5-dicarboxamide], the IC50 on hP2X2/3H is greater than 1000 nM; on hP2X3 it was 501 to 1000 nM.

`Cc1ccc(-c2cc(C(=O)N[C@@H](C)CO)cc(S(C)(=O)=O)c2)cc1` [Compound 3, (S)—N-(1-hydroxypronan-2-yl)-4′-methyl-5-(methylsulfonyl)biphenyl-3-carboxamide]: the figures for the IC50 on hP2X2/3H and at hP2X3 were greater than 1000 nM and 100 to 500 nM, respectively.

For the molecule `Cc1ccc(-c2cc(C(=O)O)cc(C(=O)N[C@@H](C)CO)c2)cc1` [Compound 4], the IC50 on hP2X2/3H and at hP2X3 was greater than 1000 nM in each case.

As to `Cc1ccc(-c2cc(C(=O)N[C@@H](C)CO)cc(C(=O)N[C@@H](C)CO)c2)cc1` [Compound 5], the figures for the IC50 at hP2X2/3H and at hP2X3 were 501 to 1000 nM and greater than 1000 nM, respectively.

In the case of `CCOC(=O)c1cc(C(=O)N[C@@H](C)CO)cc(-c2ccc(C)cc2)c1` [Compound 6, (S)-Ethyl 5-(1-hydroxypropan-2-ylcarbamoyl)-4′-methylbiphenyl-3-carboxylate], the IC50 at hP2X2/3H lay within 501 to 1000 nM; on hP2X3, 100 to 500 nM.

As to `COc1ccc([C@@H](CO)NC(=O)c2cc(C(=O)N(C)CC(C)C)cc(-c3ccc(C)cc3)c2)cn1` [Compound 7, (S)—N3-(2-hydroxy-1-(6-methoxypyridin-3-yl)ethyl)-N5-isobutyl-N5,4′-dimethyl-biphenyl-3,5-dicarboxamide], the IC50 at hP2X2/3H and at hP2X3 was 100 to 500 nM throughout.

Consider `Cc1ccc(-c2cc(C(=O)NC(C)c3cnccn3)cc(C(=O)N(C)CC(C)C)c2)cc1` (stereo not drawn) [Compound 8, N3-Isobutyl-N3,4′-dimethyl-N-5-(1-(pyrazin-2-yl)ethyl)biphenyl-3,5-dicarboxamide], for which the IC50 at hP2X2/3H was 100 to 500 nM; at hP2X3 it was less than 100 nM.

`Cc1ccc(-c2cc(C(=O)NCc3ccc(Cl)nc3)cc(C(=O)N(C)CC(C)C)c2)cc1` [Compound 9, N3-((6-Chloropyridin-3-yl)methyl)-N5-isobutyl-N5,4′-dimethylbiphenyl-3,5-dicarboxamide]: the IC50 on hP2X2/3H and on hP2X3 was less than 100 nM each time.

In the case of `Cc1ccc(-c2cc(C(=O)N[C@H](C)c3ccc(C(F)(F)F)nc3)cc(C(=O)N(C)CC(C)C)c2)cc1` [Compound 10, (R)—N3-Isobutyl-N3,4′-dimethyl-N5-(1-(6-(trifluoromethyl)pyridin-3-yl)ethyl)biphenyl-3,5-dicarboxamide], the IC50 at hP2X2/3H and at hP2X3 was 100 to 500 nM throughout.

With `Cc1ccc(-c2cc(C(=O)NCc3ccn4ccnc4c3)cc(C(=O)N(C)CC(C)C)c2)cc1` [Compound 11, N3-(Imidazo[1,2-a]pyridin-7-ylmethyl)-N5-isobutyl-N5,4′-dimethylbiphenyl-3,5-dicarboxamide], the IC50 on hP2X2/3H was 100 to 500 nM; on hP2X3, less than 100 nM.

Consider `Cc1ccc(-c2cc(C(=O)NCc3cnc(C)nc3)cc(C(=O)N(C)CC(C)C)c2)cc1` [Compound 12, N3-Isobutyl-N3,4′-dimethyl-N5-((2-methylpyrimidin-5-yl)methyl)biphenyl-3,5-dicarboxamide], for which the IC50 on hP2X2/3H and at hP2X3 was less than 100 nM throughout.

Consider `Cc1ccc(-c2cc(C(=O)N[C@H](CCO)c3ccc(C)nc3)cc(C(=O)N(C)CC(C)C)c2)cc1` [Compound 13, (R)—N3-(3-Hydroxy-1-(6-methylpyridin-3-yl)propyl)-N5-isobutyl-N5,4′-dimethylbiphenyl-3,5-dicarboxamide], for which the IC50 at hP2X2/3H and on hP2X3 was 100 to 500 nM each time.

On to `Cc1ccc(-c2cc(C(=O)N[C@H](C)c3cnc(C)nc3)cc(C(=O)N(C)CC(C)C)c2)cc1` [Compound 14, (R)—N3-Isobutyl-N3,4′-dimethyl-N5-(1-(2-methylpyrimidin-5-yl)ethyl)biphenyl-3,5-dicarboxamide], for which the IC50 at hP2X2/3H and on hP2X3 was less than 100 nM each time.

As to `CCOC(=O)c1cc(C(=O)NCc2cnc(C)nc2)cc(-c2ccc(C)cc2)c1` [Compound 15, Ethyl 4′-methyl-5-((2-methylpyrimidin-5-yl)methylcarbamoyl)biphenyl-3-carboxylate], the IC50 at hP2X2/3H and at hP2X3 was less than 100 nM each time.

In the case of `Cc1ccc(-c2cc(C(=O)NCc3cnc(C)nc3)cc(C(=O)NCc3cnc(C)nc3)c2)cc1` [Compound 16, 4′-Methyl-N3,N5-bis((2-methylpyrimidin-5-yl)methyl)biphenyl-3,5-dicarboxamide], the IC50 on hP2X2/3H and at hP2X3 was 100 to 500 nM each time.

Consider `Cc1ccc(-c2cc(C(=O)NCc3cnc(C)nc3)cc(C(=O)N3CC(F)(F)C3)c2)cc1` [Compound 17, 5-(3,3-Difluoroazetidine-1-carbonyl)-4′-methyl-N-((2-methylpyrimidin-5-yl)methyl)biphenyl-3-carboxamide], for which the IC50 on hP2X2/3H and at hP2X3 was less than 100 nM in each case.

Consider `Cc1ccc(-c2cc(C(=O)NCc3cnc(C)nc3)cc(C(=O)N3CCCCC3)c2)cc1` [Compound 18, 4′-Methyl-N-((2-methylpyrimidin-5-yl)methyl)-5-(piperidine-1-carbonyl)biphenyl-3-carboxamide], for which the IC50 at hP2X2/3H and at hP2X3 was less than 100 nM throughout.

Turning to `Cc1ccc(-c2cc(C(=O)NCc3cnc(C)nc3)cc(C(=O)N3CCCCCC3)c2)cc1` [Compound 19, 5-(Azepane-1-carbonyl)-4′-methyl-N-((2-methylpyrimidin-5-yl)methyl)biphenyl-3-carboxamide], the IC50 on hP2X2/3H and at hP2X3 was less than 100 nM each time.

Take `Cc1ccc(-c2cc(C(=O)NCc3cnc(C)nc3)cc(C(=O)N3CCCC3)c2)cc1` [Compound 20, 4′-Methyl-N-((2-methylpyrimidin-5-yl)methyl)-5-(pyrrolidine-1-carbonyl)biphenyl-3-carboxamide]: the IC50 on hP2X2/3H and at hP2X3 was less than 100 nM in each case.

As for `Cc1ccc(-c2cc(C(=O)O)cc(C(=O)NCc3cnc(C)nc3)c2)cc1` [Compound 21, 4′-Methyl-5-((2-methylpyrimidin-5-yl)methylcarbamoyl)biphenyl-3-carboxylic acid], the figures for the IC50 at hP2X2/3H and on hP2X3 were greater than 1000 nM and 100 to 500 nM, respectively.

Turning to `Cc1ccc(-c2cc(C(=O)NCc3cnc(C)nc3)cc(S(C)(=O)=O)c2)cc1` [Compound 22, 4′-Methyl-N-((2-methylpyrimidin-5-yl)methyl)-5-(methylsulfonyl)biphenyl-3-carboxamide], the IC50 is 100 to 500 nM at hP2X2/3H and less than 100 nM on hP2X3.

For the molecule `Cc1ccc(-c2cc(C(=O)NCc3ccc4cccnc4c3)cc(S(C)(=O)=O)c2)cc1` [Compound 23], the IC50 at hP2X2/3H and on hP2X3 was 100 to 500 nM each time.

For the molecule `Cc1ccc(-c2cc(C(=O)NCc3cnc(C)nc3)cc(C(=O)N3CCOCC3)c2)cc1` [Compound 24], the values for the IC50 at hP2X2/3H and at hP2X3 were 100 to 500 nM and less than 100 nM, respectively.
